Results on 1 compound are retold here after ChEMBL document CHEMBL5325437, “Shifting the selectivity of pyrido[2,3-d]pyrimidin-7(8H)-one inhibitors towards the salt-inducible kinase (SIK) subfamily” (Eur J Med Chem, 2023).

Molecules are shown by their SMILES. Calls of active or inactive are those of the source. The rule behind the calls is not given here.

Data set [1] has as its target Serine/threonine-protein kinase SIK2 (Homo sapiens) (UniProt Q9H0K1). Description: Inhibition of SIK2 in human SK-OV-3 cells assessed as upregulation of cyclin A expression level at 5 uM incubated for 48 hrs by Western blotting analysis. In kind it is cell-based.
In data set [2] the target is Mitogen-activated protein kinase 8 (Homo sapiens, UniProt P45983). Nature of the data set: Binding affinity to recombinant JNK1 (unknown origin) assessed as stabilization by measuring change in melting temperature at 10 uM by SYPRO orange dye based differential scanning fluorimetry assay.
The test system of data set [3] is SK-OV-3. Description: Induction of cell cycle arrest in human SK-OV-3 cells assessed as accumulation of cells at interphase at 5 uM incubated for 24 hrs by flow cytometry. The class given is functional.
The target of data set [4] is Tyrosine-protein kinase ABL1 (Homo sapiens, UniProt P00519). Description: Inhibition of full length NanoLuc fused ABL1 (unknown origin) transfected in HEK293T cells using NanoBRET NanoGlo substrate incubated for 2 hrs in presence of tracer by NanoBRET assay. The class given is cell-based.
For data set [5], the target named is T1, Serine/threonine-protein kinase 3 (Homo sapiens) (UniProt Q13188).
T1 sequence (whole entry): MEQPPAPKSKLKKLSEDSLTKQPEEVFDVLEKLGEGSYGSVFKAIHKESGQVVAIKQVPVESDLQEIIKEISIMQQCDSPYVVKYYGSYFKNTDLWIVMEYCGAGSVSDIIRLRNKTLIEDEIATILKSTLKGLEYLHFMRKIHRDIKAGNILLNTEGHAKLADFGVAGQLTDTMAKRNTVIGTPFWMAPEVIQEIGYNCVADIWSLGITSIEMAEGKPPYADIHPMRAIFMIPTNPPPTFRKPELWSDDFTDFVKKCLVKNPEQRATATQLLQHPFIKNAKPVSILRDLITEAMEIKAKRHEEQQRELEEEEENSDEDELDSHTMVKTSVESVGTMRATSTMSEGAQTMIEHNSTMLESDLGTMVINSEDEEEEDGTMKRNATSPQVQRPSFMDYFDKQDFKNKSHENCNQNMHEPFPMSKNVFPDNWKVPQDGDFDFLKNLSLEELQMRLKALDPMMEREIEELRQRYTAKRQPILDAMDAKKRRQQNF
Description: Binding affinity to recombinant MST2 (unknown origin) assessed as stabilization by measuring change in melting temperature at 10 uM by SYPRO orange dye based differential scanning fluorimetry assay.

Data set [6] concerns HCT-116. Nature of the data set: Cytotoxicity against human HCT-116 cells assessed as appearance of pyknosis nuclei at 1 uM incubated for 80 hrs by Hoechst-33342 staining high-content imaging analysis. Conditions: hct-116, 80 h. The class given is toxicity, cell-based.
Data set [7] in a line: Drug metabolism in Sprague-Dawley rat liver microsomes assessed as compound metabolized incubated for 60 mins in presence of NADPH by HPLC analysis. In kind it is ADME, Microsome. Conditions: 1 h.
For data set [8], the target named is Serine/threonine-protein kinase SIK2 (Homo sapiens) (UniProt Q9H0K1). Nature of the data set: Inhibition of recombinant human GST-tagged SIK2 assessed as downregulation of SIK2 phosphorylation at Ser358 incubated for 30 mins by Western blotting analysis.
Data set [9] has as its target Cyclin-G-associated kinase (Homo sapiens, UniProt O14976). Description: Inhibition of full length NanoLuc fused GAK (unknown origin) transfected in HEK293T cells using NanoBRET NanoGlo substrate incubated for 2 hrs in presence of tracer by NanoBRET assay. In kind it is cell-based.
Data set [10] has as its target Serine/threonine-protein kinase 26 (Homo sapiens) (UniProt Q9P289). Nature of the data set: Binding affinity to recombinant MST4 (unknown origin) assessed as stabilization by measuring change in melting temperature at 10 uM by SYPRO orange dye based differential scanning fluorimetry assay.
Data set [11] relates to HCT-116. Description: Cytotoxicity against human HCT-116 cells assessed as decrease in cell viability at 10 uM incubated for 24 hrs by Hoechst-33342 staining high-content imaging analysis. In kind it is toxicity, cell-based. The following applies: hct-116, 24 h.
In data set [12] the target is Cyclin-G-associated kinase (Homo sapiens) (UniProt O14976). Nature of the data set: Binding affinity to recombinant GAK (unknown origin) assessed as stabilization by measuring change in melting temperature at 10 uM by SYPRO orange dye based differential scanning fluorimetry assay.
In data set [13] the test system is SK-OV-3. Description: Induction of cell cycle arrest in human SK-OV-3 cells assessed as accumulation of cells at S phase at 5 uM incubated for 24 hrs by flow cytometry (reference value: 32%). The class given is functional.
Data set [14] deals with Serine/threonine-protein kinase SIK2 (Homo sapiens) (UniProt Q9H0K1). Nature of the data set: Inhibition of recombinant human GST-tagged SIK2 assessed as downregulation of SIK2 phosphorylation at Ser358 a 5 uM incubated for 30 mins by Western blotting analysis.
Data set [15] relates to HCT-116. Nature of the data set: Cytotoxicity against human HCT-116 cells assessed as reduction in cell count at 1 uM incubated for >60 hrs by Hoechst-33342 staining high-content imaging analysis. The following applies: hct-116, 60 h. The class given is toxicity, cell-based.
The target in data set [16] is Serine/threonine-protein kinase SIK2 (Homo sapiens) (UniProt Q9H0K1). Description: Inhibition of SIK2 in human SK-OV-3 cells assessed as downregulation of AKT phosphorylation at Ser473 at 5 uM incubated for 48 hrs by Western blotting analysis. In kind it is cell-based.
The target in a further data set is Ephrin type-A receptor 2 (Homo sapiens, UniProt P29317). Nature of the data set: Binding affinity to recombinant EPHA2 (unknown origin) assessed as stabilization by measuring change in melting temperature at 10 uM by SYPRO orange dye based differential scanning fluorimetry assay.
The target of the next data set is Ephrin type-B receptor 3 (Homo sapiens, UniProt P54753). Description: Inhibition of full length NanoLuc fused EPHB3 (unknown origin) transfected in HEK293T cells using NanoBRET NanoGlo substrate incubated for 2 hrs in presence of tracer by NanoBRET assay. The class given is cell-based.
The next data set has as its target Ephrin type-A receptor 4 (Homo sapiens, UniProt P54764). Description: Binding affinity to recombinant EPHA4 (unknown origin) assessed as stabilization by measuring change in melting temperature at 10 uM by SYPRO orange dye based differential scanning fluorimetry assay.
For data set [17], the target named is Ephrin type-B receptor 3 (Homo sapiens) (UniProt P54753). Nature of the data set: Binding affinity to recombinant EPHB3 (unknown origin) assessed as stabilization by measuring change in melting temperature at 10 uM by SYPRO orange dye based differential scanning fluorimetry assay.
Data set [18] addresses T2, Serine/threonine-protein kinase 4 (Homo sapiens) (UniProt Q13043).
T2 sequence (whole entry): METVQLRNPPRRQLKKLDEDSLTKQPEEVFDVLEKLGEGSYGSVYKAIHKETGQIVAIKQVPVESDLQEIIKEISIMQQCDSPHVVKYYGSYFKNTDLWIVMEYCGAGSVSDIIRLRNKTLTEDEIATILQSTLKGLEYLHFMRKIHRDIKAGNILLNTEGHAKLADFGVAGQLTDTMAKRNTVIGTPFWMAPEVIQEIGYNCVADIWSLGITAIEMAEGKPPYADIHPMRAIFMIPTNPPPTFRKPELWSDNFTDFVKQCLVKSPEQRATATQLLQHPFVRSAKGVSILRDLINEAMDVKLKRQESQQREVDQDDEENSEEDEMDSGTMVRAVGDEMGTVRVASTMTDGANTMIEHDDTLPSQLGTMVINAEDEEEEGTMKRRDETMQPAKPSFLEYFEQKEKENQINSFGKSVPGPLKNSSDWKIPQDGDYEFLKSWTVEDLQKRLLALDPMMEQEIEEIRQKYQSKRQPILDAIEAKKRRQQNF
Nature of the data set: Binding affinity to recombinant MST1 (unknown origin) assessed as stabilization by measuring change in melting temperature at 10 uM by SYPRO orange dye based differential scanning fluorimetry assay.

Serine/threonine-protein kinase SIK2 (Homo sapiens), sequence (Q9H0K1 whole entry, looked up, the tested form may be a part): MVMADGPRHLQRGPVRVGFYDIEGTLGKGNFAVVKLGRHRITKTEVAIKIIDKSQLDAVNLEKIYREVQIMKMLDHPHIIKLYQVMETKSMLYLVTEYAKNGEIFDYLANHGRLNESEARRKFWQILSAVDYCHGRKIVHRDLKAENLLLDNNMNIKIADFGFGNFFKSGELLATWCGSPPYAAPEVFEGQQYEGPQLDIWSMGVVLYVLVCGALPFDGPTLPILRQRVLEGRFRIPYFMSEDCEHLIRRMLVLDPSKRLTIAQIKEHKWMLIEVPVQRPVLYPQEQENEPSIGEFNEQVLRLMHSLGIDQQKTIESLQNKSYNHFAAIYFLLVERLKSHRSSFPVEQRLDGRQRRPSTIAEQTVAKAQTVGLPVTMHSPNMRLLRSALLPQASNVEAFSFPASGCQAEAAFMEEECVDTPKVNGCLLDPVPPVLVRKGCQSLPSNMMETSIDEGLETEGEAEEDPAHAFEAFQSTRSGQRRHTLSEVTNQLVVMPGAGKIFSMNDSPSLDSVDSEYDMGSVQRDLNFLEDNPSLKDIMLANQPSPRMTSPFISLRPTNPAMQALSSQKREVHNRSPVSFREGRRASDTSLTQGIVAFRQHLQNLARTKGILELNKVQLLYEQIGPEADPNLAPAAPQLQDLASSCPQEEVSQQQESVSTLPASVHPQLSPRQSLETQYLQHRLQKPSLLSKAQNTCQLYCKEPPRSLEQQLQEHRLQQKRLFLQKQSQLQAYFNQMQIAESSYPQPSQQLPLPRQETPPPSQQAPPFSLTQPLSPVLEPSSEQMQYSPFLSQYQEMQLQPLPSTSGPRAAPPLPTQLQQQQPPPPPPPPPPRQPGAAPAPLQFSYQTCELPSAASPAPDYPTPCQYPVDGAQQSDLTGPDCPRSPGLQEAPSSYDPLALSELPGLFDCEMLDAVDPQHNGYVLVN
Ephrin type-A receptor 2, sequence (P29317 whole entry, the tested form may be a part): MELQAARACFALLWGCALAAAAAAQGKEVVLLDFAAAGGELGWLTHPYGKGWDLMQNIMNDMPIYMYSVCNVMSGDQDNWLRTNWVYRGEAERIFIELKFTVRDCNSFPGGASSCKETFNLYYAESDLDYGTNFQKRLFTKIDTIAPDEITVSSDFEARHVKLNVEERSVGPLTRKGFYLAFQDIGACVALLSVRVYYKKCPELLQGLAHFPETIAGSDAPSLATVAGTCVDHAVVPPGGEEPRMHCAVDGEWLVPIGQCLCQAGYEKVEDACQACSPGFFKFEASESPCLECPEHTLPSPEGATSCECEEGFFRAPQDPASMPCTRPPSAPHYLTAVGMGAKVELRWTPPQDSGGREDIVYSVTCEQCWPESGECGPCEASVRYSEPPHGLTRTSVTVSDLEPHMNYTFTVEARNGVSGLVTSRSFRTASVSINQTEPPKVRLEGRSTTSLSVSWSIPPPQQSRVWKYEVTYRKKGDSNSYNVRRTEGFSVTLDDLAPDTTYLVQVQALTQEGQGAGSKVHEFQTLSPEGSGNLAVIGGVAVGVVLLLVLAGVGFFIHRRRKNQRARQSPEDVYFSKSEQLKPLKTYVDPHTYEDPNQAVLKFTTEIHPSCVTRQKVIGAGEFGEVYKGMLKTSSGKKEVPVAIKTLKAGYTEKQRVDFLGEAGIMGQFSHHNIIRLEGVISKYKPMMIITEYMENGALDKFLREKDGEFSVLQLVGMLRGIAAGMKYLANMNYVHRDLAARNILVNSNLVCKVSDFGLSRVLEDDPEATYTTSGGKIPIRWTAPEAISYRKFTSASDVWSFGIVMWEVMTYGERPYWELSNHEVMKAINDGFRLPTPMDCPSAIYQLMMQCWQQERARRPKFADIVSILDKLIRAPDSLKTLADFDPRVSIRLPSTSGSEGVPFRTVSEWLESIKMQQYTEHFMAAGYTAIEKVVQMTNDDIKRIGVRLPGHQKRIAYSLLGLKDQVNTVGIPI
Tyrosine-protein kinase ABL1, sequence (P00519 whole entry, the tested form may be a part): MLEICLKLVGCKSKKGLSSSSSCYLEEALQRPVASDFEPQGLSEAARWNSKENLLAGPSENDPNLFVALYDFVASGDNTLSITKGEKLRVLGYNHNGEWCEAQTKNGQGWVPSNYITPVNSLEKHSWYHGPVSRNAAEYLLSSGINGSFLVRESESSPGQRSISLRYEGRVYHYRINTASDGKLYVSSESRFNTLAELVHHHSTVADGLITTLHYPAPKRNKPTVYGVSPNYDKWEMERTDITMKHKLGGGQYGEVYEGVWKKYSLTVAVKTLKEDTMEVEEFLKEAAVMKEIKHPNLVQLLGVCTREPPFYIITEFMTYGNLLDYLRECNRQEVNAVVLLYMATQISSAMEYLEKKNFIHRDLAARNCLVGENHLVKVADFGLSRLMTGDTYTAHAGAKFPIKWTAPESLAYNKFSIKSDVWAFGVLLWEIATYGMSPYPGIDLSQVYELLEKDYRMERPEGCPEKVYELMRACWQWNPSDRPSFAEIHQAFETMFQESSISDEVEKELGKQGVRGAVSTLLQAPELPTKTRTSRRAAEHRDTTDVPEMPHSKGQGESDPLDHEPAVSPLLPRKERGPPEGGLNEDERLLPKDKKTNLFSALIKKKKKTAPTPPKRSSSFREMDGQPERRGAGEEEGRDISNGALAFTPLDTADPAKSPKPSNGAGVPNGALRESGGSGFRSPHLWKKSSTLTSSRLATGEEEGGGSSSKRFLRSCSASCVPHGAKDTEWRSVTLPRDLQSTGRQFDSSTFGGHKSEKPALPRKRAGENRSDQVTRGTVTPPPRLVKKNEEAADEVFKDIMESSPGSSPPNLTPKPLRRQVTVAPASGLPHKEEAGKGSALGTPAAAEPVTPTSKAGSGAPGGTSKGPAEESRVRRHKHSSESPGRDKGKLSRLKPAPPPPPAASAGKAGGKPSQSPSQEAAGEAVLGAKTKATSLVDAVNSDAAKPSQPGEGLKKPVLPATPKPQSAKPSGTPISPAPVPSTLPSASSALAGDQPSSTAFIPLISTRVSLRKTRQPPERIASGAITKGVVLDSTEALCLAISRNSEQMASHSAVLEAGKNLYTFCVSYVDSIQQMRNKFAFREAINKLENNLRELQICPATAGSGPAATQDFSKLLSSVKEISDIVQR
Mitogen-activated protein kinase 8, sequence (P45983 whole entry): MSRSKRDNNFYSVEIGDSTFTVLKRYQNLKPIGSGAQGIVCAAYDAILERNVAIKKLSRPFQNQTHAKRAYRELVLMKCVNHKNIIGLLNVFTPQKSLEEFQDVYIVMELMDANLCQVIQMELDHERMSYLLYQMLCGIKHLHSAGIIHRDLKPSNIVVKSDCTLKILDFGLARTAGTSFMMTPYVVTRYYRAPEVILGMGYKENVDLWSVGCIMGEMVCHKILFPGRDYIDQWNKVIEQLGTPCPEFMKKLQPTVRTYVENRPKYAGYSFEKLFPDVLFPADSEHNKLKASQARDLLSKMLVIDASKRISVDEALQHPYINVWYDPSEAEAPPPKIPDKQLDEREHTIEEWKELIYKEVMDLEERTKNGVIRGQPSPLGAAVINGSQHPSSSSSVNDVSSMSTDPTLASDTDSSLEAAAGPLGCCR
Ephrin type-A receptor 4, sequence (P54764 whole entry): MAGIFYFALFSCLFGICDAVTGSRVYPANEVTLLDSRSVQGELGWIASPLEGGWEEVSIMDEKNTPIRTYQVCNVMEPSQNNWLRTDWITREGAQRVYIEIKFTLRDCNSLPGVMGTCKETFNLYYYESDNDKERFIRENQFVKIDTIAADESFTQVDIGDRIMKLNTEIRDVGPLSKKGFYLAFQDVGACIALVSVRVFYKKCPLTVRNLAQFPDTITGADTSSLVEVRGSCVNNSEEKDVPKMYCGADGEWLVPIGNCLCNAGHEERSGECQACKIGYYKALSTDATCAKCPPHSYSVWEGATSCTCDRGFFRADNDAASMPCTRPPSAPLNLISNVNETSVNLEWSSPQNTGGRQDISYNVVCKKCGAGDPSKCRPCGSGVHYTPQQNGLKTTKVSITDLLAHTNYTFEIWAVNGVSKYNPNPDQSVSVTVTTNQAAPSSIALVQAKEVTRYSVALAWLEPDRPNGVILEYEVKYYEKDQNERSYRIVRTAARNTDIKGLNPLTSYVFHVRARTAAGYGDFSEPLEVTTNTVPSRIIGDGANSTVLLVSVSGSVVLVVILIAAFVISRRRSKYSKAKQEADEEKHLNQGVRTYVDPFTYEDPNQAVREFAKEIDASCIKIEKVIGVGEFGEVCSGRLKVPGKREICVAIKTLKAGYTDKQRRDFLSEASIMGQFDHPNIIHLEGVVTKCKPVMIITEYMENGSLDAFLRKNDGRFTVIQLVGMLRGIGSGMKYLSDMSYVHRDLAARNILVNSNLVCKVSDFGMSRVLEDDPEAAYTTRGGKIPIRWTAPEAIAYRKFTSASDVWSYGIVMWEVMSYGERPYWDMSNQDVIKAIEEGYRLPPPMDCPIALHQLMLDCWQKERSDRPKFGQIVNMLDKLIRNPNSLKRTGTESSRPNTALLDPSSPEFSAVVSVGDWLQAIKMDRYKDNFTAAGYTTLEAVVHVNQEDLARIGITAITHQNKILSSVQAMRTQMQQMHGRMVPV
Serine/threonine-protein kinase 26 (Homo sapiens), sequence (Q9P289 2-416 limits assumed): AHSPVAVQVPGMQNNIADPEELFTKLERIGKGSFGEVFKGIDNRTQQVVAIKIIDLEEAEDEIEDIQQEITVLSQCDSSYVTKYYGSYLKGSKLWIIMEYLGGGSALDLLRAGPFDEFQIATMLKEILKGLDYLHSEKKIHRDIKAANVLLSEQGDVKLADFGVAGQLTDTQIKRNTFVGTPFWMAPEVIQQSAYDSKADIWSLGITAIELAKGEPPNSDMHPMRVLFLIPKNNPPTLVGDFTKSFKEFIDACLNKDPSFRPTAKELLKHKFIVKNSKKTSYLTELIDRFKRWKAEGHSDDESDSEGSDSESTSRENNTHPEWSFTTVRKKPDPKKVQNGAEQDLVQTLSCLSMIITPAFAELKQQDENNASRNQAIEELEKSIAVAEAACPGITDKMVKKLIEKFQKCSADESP

As for `CNc1ncc2cc(-c3cc(F)ccc3F)c(=O)n(CCCCN)c2n1`, the inhibition entry in data set [1], in data set [14] and in data set [16] was “Active” in each case. Moreover, the ΔTm in data set [2] was 7.3 °C; in [5] it was 0.6 °C; in [10], 0.9 °C; in data set [12], 5.9 °C; at Ephrin type-A receptor 2 it was 8.9 °C; at Ephrin type-A receptor 4, 5.5 °C. Moreover, the figures for the ΔTm in data set [17] and in data set [18] were 5.6 °C and 0.9 °C, respectively. The Activity in the data set with SK-OV-3 [3] is recorded as 69%; in the data set with HCT-116 [6], “Toxic”; in the data set on HCT-116 [11], “Toxic”; in the data set on SK-OV-3 [13], 19%; in the data set on HCT-116 [15], “Toxic”. In addition, the concentration for half-maximal inhibition (IC50) in [4] is 28.1 µM; in data set [9], 33.8 µM; on Ephrin type-B receptor 3 it was 18.3 µM. In addition, in [7], the Drug metabolism result is on record as “Metabolite_Detected”. In addition, in data set [8], the inhibition result is “Dose-Dependent Effect”.
